Reference: PMC9228282, “Catalytic Properties of Caseinolytic Protease Subunit of Plasmodium knowlesi and Its Inhibition by a Member of δ-Lactone, Hyptolide” (Molecules, 2022)
Like-named read-outs stand apart in the source and are kept apart here.

Columns and labels:
[1] = target: caseinolytic protease proteolytic subunit (ClpP) of Plasmodium knowlesi (Plasmodium knowlesi); experiment: SEC; purified Pk-ClpP on HiLoad 16/60 Superdex 200pg, 50 mM Tris-HCl pH 8.0, 50 mM NaCl, 0.5 mL/min; size by comparison with protein markers
[2] = target: T1, caseinolytic protease proteolytic subunit of Plasmodium knowlesi (Pk-ClpP) (Plasmodium knowlesi, UniProt A0A384LAC0); experiment: chromogenic protease assay with N-CBZ-Glycine p-nitrophenyl ester on purified Pk-ClpP; assay type: biochemical
T1 construct: gene PKNH_0835300
T1 sequence (A0A384LAC0 141-372 limits assumed): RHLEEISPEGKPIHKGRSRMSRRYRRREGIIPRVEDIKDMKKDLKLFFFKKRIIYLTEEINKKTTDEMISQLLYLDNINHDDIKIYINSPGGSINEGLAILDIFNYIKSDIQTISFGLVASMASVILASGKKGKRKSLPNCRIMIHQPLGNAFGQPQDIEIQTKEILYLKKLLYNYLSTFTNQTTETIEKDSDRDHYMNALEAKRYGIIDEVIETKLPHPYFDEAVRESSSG

[3] = target: T1, caseinolytic protease proteolytic subunit of Plasmodium knowlesi (Pk-ClpP)

caseinolytic protease proteolytic subunit (ClpP) of Plasmodium knowlesi (enzyme)
stoichiometry N [1]: 7

O=S(=O)(F)Cc1ccccc1 [PMSF, phenylmethylsulfonyl fluoride, reference compound]
IC50 [2]: 6.9 ± 0.18 nM

O=C(CNC(=O)OCc1ccccc1)Oc1ccc([N+](=O)[O-])cc1 [N-CBZ-Glycine p-nitrophenyl ester]
Km [3]: 3.07 ± 0.18 µM

CC(=O)O[C@H](/C=C\[C@H]1CC=CC(=O)O1)C[C@@H](OC(C)=O)[C@H](C)OC(C)=O [Hyp, hyptolide]
IC50 ([2]; read-out: IC50): 17.4 ± 1.44 nM
